Experimental data: paper PMC6156508, “GA-Hecate antiviral properties on HCV whole cycle represent a new antiviral class and open the door for the development of broad spectrum antivirals” (Scientific Reports, 2018)
Where no end group is shown, it is not given here.

Tests used:
[1] = tested on: HCV subgenomic replicon SGR-Feo-JFH-1 (genotype 2a); assay: HCV subgenomic replicon replication, luciferase assay (genotype 2a); format: cell-based, hepatitis C virus; details: for SI (selectivity index), ratio CC50/EC50 / inhibition of HCV replication at the maximum safe concentration: 48 h, genotype 2a replicon; for EC50: Huh-7.5 harbouring SGR-Feo-JFH-1 genotype 2a, 48 h treatment, 2.5-20 μM, luciferase, triplicate in three independent assays, read-out: EC50 (50% effective concentration for HCV); for inhibition of HCV replication at the maximum safe concentration: at each peptide's maximum safe concentration (Hecate 10 μM; Lys-, Glu-, Acetyl-Hecate 5 μM)
Source text: (§1) Figure 2 Hecate and its derivative-peptide effects on subgenomic HCV genotype 2a replication and hepatotoxicity. (A) Hecate. (B) Lys- Hecate. (C) GA-Hecate. (D) GA2-Hecate. (E) Acetyl-Hecate. (F) Glu-Hecate. Luciferase assays report HCV replication and MTT assays report the viability of Huh-7.5 cells harboring SGR-JFH-1 Feo under peptide treatment. Water was used as a negative control of virus replication inhibition and cell death (Control (−)), and Cyclosporine A was used as a positive control for virus replication inhibition (Control (+)). Red dotted lines represent the arbitrary threshold of 80% cell viability, and blue dotted lines represent the maximum inhibition presented by Hecate at the maximum safe concentration. Bars represent triplicates of the three independent assays. ***P < 0.01 vs control (−).
Cell lines harboring subgenomic or genomic replicons were seeded at 5 × 10^3 cells /well on 96-well plates and the compounds were added 24 h post-seeding, in a concentration range between 2.5–20 μM. After 48 h of treatment, the cells were disrupted with 30 μL of passive lysis buffer (Promega, Madison, WI, USA), and luciferase substrate (Promega, Madison, WI, USA) was automatically added to each sample. Luciferase activity was measured using a luminometer (FLUOstar Omega/BMG LABTECH, Offenburg, BW, DE). The same assays were performed in Huh-7.5 cell lines harboring SGR-JFH1 Feo, S52/SG-neo or FL-J6/JFH-50C19Rluc2AUbi. Cyclosporine A (Sigma-Aldrich) at 1 μM was used as positive control of viral replication inhibition and dH2O as negative control.
(§2) GA-Hecate toxicity and viral inhibition profile in 24, 48 and 72h post-treatment in […]
(§3) GA-Hecate toxicity and viral inhibition capacity were evaluated at 24, 48 and 72h post-treatment. Tested concentrations were 1.25; 2.5; 5; 10; 20; and 40 µM. At the end of every incubation, cells were stained using MTT as previously described. Similarly, at every time point, treated cells were lysed using PLB and summited to Luminescence analysis as previously described. […]

[2] = tested on: Huh-7.5 cells harboring SGR-JFH-1 Feo; assay: MTT cytotoxicity in hepatocytes; format: cell-based, human; details: for CC50 (50% cytotoxic concentration): 48 h incubation, SGR-Feo-JFH-1 Huh-7.5 cells, triplicate in three independent assays; for maximum non-toxic (safe) concentration in hepatocytes: arbitrary threshold of 80% cell viability, 48 h
Source text: as §1
Peptide cytotoxicity profiles were measured by the MTT [3-(4,5-dimethylthiazol- 2-yl)-2,5-diphenyl tetrazolium bromide] (Sigma–Aldrich) method. Twenty-four hours before treatment, 5 × 10^3 SGR-harboring cell lines (SGR-Feo-JFH-1 or S52/SG-neo) were cultured with supplemented DMEM in a 96-multi-well plate and incubated at 37 °C in a humidified 5% CO2 incubator. On the subsequent day, peptide-containing medium was added at the following final concentrations: 2.5, 5, 10 and 20 μM. The tested peptides were Hecate and its derivatives, which included the following: lysine addition (Lysine-Hecate/Lys-Hecate); one or two molecules of Gallic Acid (GA-Hecate and GA2-Hecate); one acetyl radical (Acetyl-Hecate) or Glutamic acid (Glu-Hecate). After 48 h of incubation, peptide-media was removed, and MTT at a final concentration of 1 mg/mL was added to the wells, incubated for 30 minutes and subsequently replaced by 100 μL of DMSO. Absorbance was measured at 562 nm, using a plate spectrophotometer (FLUOstar Omega/BMG LABTECH, Offenburg, BW, DE). Cell viability was calculated considering water-treated cells (peptides diluent) as a negative control. All experiments were performed in triplicate and in three independent replicates. Further assays were performed considering at least 80% viability of the treated cells.
as §2, §3

| Molecule | SI (selectivity index), ratio CC50/EC50 [1] | EC50 [1] | CC50 (50% cytotoxic concentration) [2] | maximum non-toxic (safe) concentration in hepatocytes [2] | inhibition of HCV replication at the maximum safe concentration [1] |
| --- | --- | --- | --- | --- | --- |
| CC(C)C[C@H](NC(=O)[C@H](C)NC(=O)[C@H](CCCCN)NC(=O)[C@H](CCCCN)NC(=O)[C@H](CC(C)C)NC(=O)[C@H](C)NC(=O)[C@H](CCCCN)NC(=O)[C@H](CCCCN)NC(=O)[C@H](CC(C)C)NC(=O)[C@H](CCCCN)NC(=O)[C@H](CCCCN)NC(=O)[C@H](CC(C)C)NC(=O)[C@H](C)NC(=O)[C@H](CCCCN)NC(=O)[C@H](CCCCN)NC(=O)[C@H](CC(C)C)NC(=O)[C@H](C)NC(=O)[C@H](CCCCN)NC(=O)[C@H](CC(C)C)NC(=O)[C@H](C)NC(=O)[C@H](CC(C)C)NC(=O)[C@H](C)NC(=O)[C@H](Cc1ccccc1)NC(=O)[C@@H](N)CCCCN)C(N)=O [Lys-Hecate] | 3.06 | 2.6 µM | 7.97 µM | 5 µM | – |
| Ac-FALALKALKKALKKLKKALKKAL-NH2 [Acetyl-Hecate] | – | 3.79 µM | 9.43 µM | 5 µM | approximately 65% |
| FALALKALKKALKKLKKALKKAL-NH2 [Hecate] | 1.42 | 8.57 µM | 12.17 µM | 10 µM | – |
| H-EFALALKALKKALKKLKKALKKAL-NH2 [Glu-Hecate] | 2.76 | 3.3 µM | 9.12 µM | 5 µM | approximately 65% |
